Reference: patent US11419859B2, “Combination therapy for treating malignancies” (Servier Pharmaceuticals LLC, priority 2015, dated 2022)

Assay: blood bilirubin in subjects with a UGT1A1 mutation receiving COMPOUND 1
Format: in vivo, human
From the text: All toxicity≥Grade 3 not due to underlying AML or complications of the disease or myelosuppressive treatment, with the exception of ≥Grade 3 blood bilirubin increases in subjects with a UGT1A1 mutation receiving COMPOUND 1.

For CC(C)(O)CNc1nc(Nc2ccnc(C(F)(F)F)c2)nc(-c2cccc(C(F)(F)F)n2)n1 [COMPOUND 1, 2-methyl-[(4-[6-(trifluoromethyl)pyridin-2-yl]-6-{[2-(trifluoromethyl)pyridin-4-yl]amino}-1,3,5-triazin-2-yl)amino]propan-2-ol], the blood bilirubin was “isolated blood bilirubin increases have been seen”.
